Measured values: US9738657B2, “Highly efficient polarizing agents for dynamic nuclear polarization” (Bruker Biospin S.A.S., priority 2013, dated 2017)
Values after ≈ are worked out from the molar mass of the structure shown.

Experiment: Solubility in Glycerol/H2O (60/40)
Settings: Glycerol/H2O (60/40)

Molecule | Solubility in Glycerol/H2O (60/40)
4,4-ureylene-di-(2,2,6,6-tetramethylpiperidinyloxyl) [bTUrea, reference compound] | ~3 mM
(4-{3-[1-(PEG)-1H-1,2,3-Triazol-4-yl]propyl}[(1-oxyl-2,2,6,6-tetramethylpiperidin-4-yl)carbamoyl]amino}-2,2,6,6-tetramethylpiperidin-1-yl)oxidanyl [Compound 61] | ~20 mM
(4-{(2,5,8,11-tetraoxatridecan-13-yl)[(1-oxyl-2,2,6,6-tetramethyl piperidin-4-yl)carbamoyl]amino}-2,2,6,6-tetramethylpiperidin-1-yl)oxidanyl [Compound 52] | ~10 mM
(4-{[2-(2-methoxyethoxy)ethyl][(1-oxyl-2,2,6,6-tetramethylpiperidin-4-yl)carbamoyl]amino}-2,2,6,6-tetramethylpiperidin-1-yl)oxidanyl [Compound 51] | ~10 mM
(15-{[(7-oxyl-3,11-dioxa-7-azadispiro[5.1.5.3]hexadec-15-yl)carbamoyl][2-(2,5,8,11-tetraoxatridecan-13-ylamino)}-[3,11-dioxa-7-azadispiro[5.1.5.3]hexadec-7-yl])oxidanyl [Compound 58] | ~25 mM
(15-{[(7-oxyl-3,11-dioxa-7-azadispiro[5.1.5.3]hexadec-15-yl)carbamoyl][2-(2-methoxyethoxy)ethyl]amino}-[3,11-dioxa-7-azadispiro[5.1.5.3]hexadec-7-yl])oxidanyl [Compound 57] | ~25 mM
α-{(7-Oxyl-3,11-dioxa-7-azadispiro[5.1.5.3]hexadec-15-yl)[(7-oxyl-3,11-dioxa-7-azadispiro[5.1.5.3]hexadec-15-yl)carbamoyl]amino}ω-methylpoly(ethane-1,2-diyloxy) [Compound 72] | >20 mM

Same assay, conditions: glycerol/water (60/40), aqueous with cosolvent or surfactant or cyclodextrin

Molecule | solubility
[O]N1C2(CCOCC2)CC(NC(=O)NC2CC3(CCOCC3)N([O])C3(CCOCC3)C2)CC12CCOCC2 (stereo not shown) [Compound 56, (15-{[(7-Oxyl-3,11-dioxa-7-azadispiro[5.1.5.3]hexadec-15-yl)carbamoyl]amino}-[3,11-dioxa-7-azadispiro[5.1.5.3]hexadec-7-yl])oxidanyl] | ~25 mM (≈ 13.4 mg/mL)
COCCOCCOCCOCCOC1CN(C2CC3(CCOCC3)N([O])C3(CCOCC3)C2)C(=O)N(C2CC3(CCOCC3)N([O])C3(CCOCC3)C2)C1 (stereo not shown) [Compound 70, 1,3-Bis(7-oxyl-3,11-dioxa-7-azadispiro[5.1.5.3]hexadec-15-yl)-5-(2,5,8,11-tetraoxatridecan-13-yloxy)tetrahydropyrimidin-2(1H)-one] | > 10 mM
O=C(NC1CC2(CCOCC2)N(O)C2(CCOCC2)C1)N(CCOCCO)C1CC2(CCOCC2)N(O)C2(CCOCC2)C1 (stereo not shown) [Compound 71, (15-{[(7-Oxyl-3,11-dioxa-7-azadispiro[5.1.5.3]hexadec-15-yl)carbamoyl][2-(2-hydroxyethoxy)ethyl]amino}-[3,11-dioxa-7-azadispiro[5.1.5.3]hexadec-7-yl])oxidanyl] | > 20 mM
